{"source": "patent US20190099502A1", "about": "“TARGETING THE NEURONAL CALCIUM SENSOR 1 FOR TREATING WOLFRAM SYNDROME” (INSERM (INSTITUT NATIONAL DE LA SANTÉ ET DE LA RECHERCHE …, priority 2016, published 2019)", "tested_on": "NCS1 expression", "test": "Time course immunoblotting of NCS1 in fibroblasts treated with MG-132", "type": "cell-based, human", "settings": "10 μM MG-132, 16 h", "method": "Immunoprecipitates were analysed by western blotting with antibodies against Flag and myc. Input represents cell lysate. n=3 independent experiments. (B) Transcript levels of WFS1 were quantified by RT-qPCR in control (C1, C2) and patient fibroblasts (P1, P2). The mRNA levels were normalized with reference gene L27. Error bars: SEM n=6 independent experiments. (C) Immunoblot of lysates from controls (C1, C2) and patient fibroblasts (P1, P2) with NCS1 antibody. GAPDH was used as a loading control. The immunoblot bands were quantified by densitometry, and the NCS1/GAPDH ratios were calculated (n=5 independent experiments). (D) Western analysis and quantification of control fibroblasts transfected with scramble siRNA (siScr) or WFS1 siRNA (siWFS1). WFS1 and NCS1 protein expression were analysed 72 h post-siRNA transfection. Data are represented as mean ±SEM from n=7 independent experiments *p<0.05, using Mann Whitney test. […]\nGAPDH was used as a loading control. Quantification of NCS1 expression level after 16 h of MG-132 treatment normalized to GAPDH is shown. […]\nTo investigate NCS1 functions in WS, we took advantage of WFS1-null patient fibroblasts. […] We first examined the expression of WFS1 using quantitative PCR and western blot. […] Then, we analysed NCS1 mRNA and protein expression in patient cells. […]", "note": "Where a SMILES comes first, the peptide text is derived from it. The star is where a group is joined. Cbz = O=C(OCc1ccccc1)*", "data": [{"smiles": "CC(C)C[C@@H](C=O)NC(=O)[C@H](CC(C)C)NC(=O)[C@H](CC(C)C)NC(=O)OCc1ccccc1", "note": "[MG-132] (Cbz-Leu-Leu-Leu-aldehyde)", "values": [{"measurement": "effect on NCS1 expression", "setting": "control cells", "result": "ineffective"}, {"measurement": "increase in NCS1 expression", "setting": "patient fibroblasts, normalized to GAPDH", "result": "two-fold"}]}]}
